Experimental data taken from US10494341B2, “Compound containing indoleacetic acid core structure and use thereof” (Beijing An Jian Xi Bio-Medical Technology Co., Ltd., priority 2015, dated 2019).

Assays:
[1] = system: mouse colon cancer cells (MCA-38); test: Killing effect of cisplatin on tumor cells with compound (LDH); type: cell-based; settings: MCA-38, 10, 30 and 90 μM, 24 hours
Method: (§1) The mechanism of compounds enhancing killing effect of chemotherapeutic agents on tumor cells while protecting normal cells: mouse colon cancer cells (MCA-38) and primarily-cultured normal mouse intestinal mucosa cells were cultured in a 96-well plate, respectively. 24 hours later, various concentrations (10, 30 and 90 μM) of compound b was respectively added to the cell culture medium, and incubated for 24 hours. LDH was used to detect the damage of the cells, and the cells were collected and extracted for protein. The expression levels of adenosine triphosphate-binding transporter (ABCG2) and the cell cycle-dependent protein […] (p21) were detected by immunoblotting (performed according to the instructions provided by the manufacturer). […] ABCG2 is a transporter, and can pump anticancer drugs out of the cells. […] The high expression of p21 allows the cells to be in non-dividing quiescent phase, so that cells are not sensitive to chemotherapeutic drugs or injury in other forms. The compounds of the present invention make these proteins expressed differentially in normal tissues and tumor tissues, which is one of the reasons for selectively protecting normal tissues and enhancing the sensitivity of tumors to treatment.

[2] = system: normal mouse intestinal mucosa cells; test: Cisplatin damage of normal cells with compound (LDH); type: cell-based; settings: all tested concentrations except the high concentration, 24 hours
Method: as §1

[3] = system: adenosine triphosphate-binding transporter (ABCG2); test: Expression of ABCG2 by immunoblotting; type: cell-based, mouse
Method: as §1

[4] = system: cell cycle-dependent protein kinase (p21); test: Expression of p21 by immunoblotting; type: cell-based, mouse
Method: as §1

peripheral leukocytes = test: Protection against blood cell (leukocyte) damage induced by paclitaxel; type: in vivo; settings: mice, compounds 6 mg/kg/day gavage; for protective effect on peripheral leukocytes (words): paclitaxel 10 mg/kg/day i.p.; for protective effect on leukocytes at the late stage of chemotherapy: paclitaxel
Method: In this experiment, 10-week-old male mice (C57BL/6J) weighing about 20 grams were used as subjects, and 6 mice were taken as a group. The mice were divided into 5 groups: 1. Paclitaxel; 2. Paclitaxel+amifostine; 3. Paclitaxel+intermediate I+intermediate II; 4. paclitaxel+compound a; and 5. paclitaxel+compound b. Firstly, each group of mice was administered with a protective agent, and the specific amounts were as follows: compounds a and b: each 6 mg/kg/day (8.1 μM), amifostine: 400 mg/kg/day (1.5 mM), intermediate I+Intermediate II: each 3 mg/kg/day (8.1 μM). Except that amifostine was intraperitoneally injected (30 minutes before administering Paclitaxel, amifostine was administered), the other protective agents were administered by gavage (once a day, 25 times continuously). 12 hours after the compound a and the corresponding protective agents were administered, Paclitaxel was intraperitoneally injected (10 mg/kg/day, once every 3 days, 9 times continuously), and 7, 14, 21, 28 days later, blood of mice was drawn respectively. The number of leukocytes was analyzed.

[5] = Degradation of the compound in plasma (10% bovine serum medium, HPLC); type: in vitro ADME; settings: 10 μM, 37° C., within 24 hours
Method: (§2) Determination of the stability of the compound: (1) degradation of the compound in plasma: Compound a (10 μM) dissolved in DMSO was cultured with 10% bovine serum medium (5 mL) at 37° C. 200 μL of medium was collected at the time points of 1, 3, 6, 12 and 24 hours, respectively, added with equal volume of acetonitrile for reaction, and subjected to high speed centrifugation (13,000 rpm) for 5 minutes. The level of degradation of the compound was determined by HPLC. (2) Degradation of the compound in cells: the compound a dissolved in DMSO was added at a final concentration of 10 μM to a 6-well culture dish containing SW480 cells and incubated in carbon dioxide incubator. The cells were collected at the time points of 1, 3, 6, 12, and 24 hours, respectively, washed fully, then extracted with 0.5 mL of acetonitrile, and centrifuged at high speed (12,000 rpm) for 5 minutes. The level of degradation of the compound in the organic phase was determined by HPLC.

SW480 cells = test: Degradation of the compound in cells (HPLC); type: in vitro ADME; settings: 10 μM
Method: as §2

[6] = system: colon cancer cells (SW480); settings: SW480 tumors in nude mice
Method: The experiment was carried out using compound a in this example. Under sterile conditions, a suspension of colon cancer cells (SW480) in logarithmic growth phase (cell concentration was adjusted to 1×10^7/mL with physiological saline) was inoculated subcutaneously to 5 to 6 weeks old balb/c female nude mice on the right rear back, and each nude mice was inoculated at an amount of 0.3 ml, i.e. the number of cells contained was 3×10^6 per each mouse. 10 days later, subcutaneous transplanted tumor of 100-250 mm^3 appeared. The nude mice with tumor were randomly divided into several groups, each containing 6 mice: (1) control group; (2) doxorubicin group; (3) doxorubicin+amifostine; (4) doxorubicin+Celecoxib+intermediate II; (5) doxorubicin+intermediate I+intermediate II; (6) doxorubicin+low-dose compound a (6 mg/kg/day); (7) doxorubicin+high-dose compound a (15 mg/kg/day). Firstly, the following compounds were administered to each group of nude mice with tumor according to the following doses: intermediate I and intermediate II (3 mg/kg/day respectively), amifostine (400 mg/kg/day), Celecoxib (6 mg/kg/day). Except that amifostine was subcutaneously injected (30 minutes before irradiation), the other protective agents were administered by gavage. The above drugs were administered every day for 5 weeks continuously. 12 hours after the administration, doxorubicin (2.5 mg/kg) was injected intraperitoneally, and it was administered once every 2 days for 5 weeks. During the dosing period, the body weight of the nude mice was measured every two days with a precision electronic balance. The growth of the tumor and whether or not red and swelling and rupture occur were observed every day after inoculation. After tumor formation, the surface morphology and activity of the transplanted tumor were examined, and the longest diameter (a) and the shortest diameter (b) of the tumor nodules were measured every 3 days with a vernier caliper. […] 21 days after administration of doxorubicin, the tail vein blood of mice was collected to perform leukocyte count and blood biochemical index analysis. The tumor tissue and normal peripheral tissues were taken on the last day of treatment, and the content of the intermediate I therein was measured by HPLC (FIG. 9a). At the same time, paraffin sections were made, the occurrence of apoptosis was detected by terminal labeling (FIG. 9b), and the relative survival percentages of normal tissue and tumor tissue were calculated (the results are summarized in FIG. 9b).

[7] = Content of active components in tumor tissue and normal peripheral tissue (HPLC); type: in vivo; settings: last day of treatment
Method: The experiment was carried out using compound a in this example. Under sterile conditions, a suspension of colon cancer cells (SW480) in logarithmic growth phase (cell concentration was adjusted to 1×10^7/mL with physiological saline) was inoculated subcutaneously to 5 to 6 weeks old balb/c female nude mice on the right rear back, and each nude mice was inoculated at an amount of 0.3 ml, i.e. the number of cells contained was 3×10^6 per each mouse. 10 days later, subcutaneous transplanted tumor of 100-250 mm^3 appeared. […] During the dosing period, the body weight of the nude mice was measured every two days with a precision electronic balance. […] After tumor formation, the surface morphology and activity of the transplanted tumor were examined, and the longest diameter (a) and the shortest diameter (b) of the tumor nodules were measured every 3 days with a vernier caliper. […] The tumor tissue and normal peripheral tissues were taken on the last day of treatment, and the content of the intermediate I therein was measured by HPLC (FIG. 9a). At the same time, paraffin sections were made, the occurrence of apoptosis was detected by terminal labeling (FIG. 9b), and the relative survival percentages of normal tissue and tumor tissue were calculated (the results are summarized in FIG. 9b).

A549 cells = test: A549 transplanted tumors in nude mice, compound used alone; type: in vivo
Method: Except cisplatin (intraperitoneal injection, once a week), all compounds were administered by gavage, once a day for 5 weeks continuously.

[8] = normal mouse intestinal mucosa cells

| Structure (SMILES) | killing effect of cisplatin on colon cancer cells [1] | cisplatin damage of normal intestinal mucosa cells [2] | expression of ABCG2 in tumor cells ([3]; MCA-38 cells) | expression of ABCG2 in normal cells [3, 8] | expression of p21 in tumor cells ([4]; MCA-38 cells) | expression of p21 in normal intestinal mucosa cells [4, 8] | protective effect on peripheral leukocytes (words) (peripheral leukocytes) | protective effect on peripheral leukocytes (words) (peripheral leukocytes; listed as Compound b) | protective effect on leukocytes at the late stage of chemotherapy (peripheral leukocytes) | compound hydrolyzed in bovine serum [5] [%] | compound hydrolyzed in cells (SW480 cells; within 3 hours) [%] | compound hydrolyzed in cells (SW480 cells; within 24 hours) | effect on tumor / on sensitivity of tumor to doxorubicin ([6]; doxorubicin 2.5 mg/kg i.p. every 2 days for 5 weeks, agents daily) | death of animals during treatment ([6]; doxorubicin 2.5 mg/kg i.p., 6 mice per group) | protection of normal tissue and cells from doxorubicin ([6]; with doxorubicin) | content of active components in tumor tissues versus peripheral normal tissues [7] | inhibition of tumors (A549 cells; A549, high-dose compound a (25 mg/kg/day) gavage, 5 weeks) [%] | inhibitory effect on the tumor (A549 cells; A549, cisplatin 5 mg/kg/week i.p., compound a 5 and 25 mg/kg/day, intermediates 12.5 mg/kg/day each) | body weights of the animals (A549 cells; A549, high dose, during administration) |
| --- | --- | --- | --- | --- | --- | --- | --- | --- | --- | --- | --- | --- | --- | --- | --- | --- | --- | --- | --- |
| COc1ccc2c(CC(=O)OCCCCCCCCCCc3c(C)c(O)c(OC)c(OC)c3O)c(C)n(C(=O)c3ccc(Cl)cc3)c2c1 [compound b] | significantly enhances the killing effect of cisplatin | significantly inhibit cisplatin from damaging normal intestinal mucosa cells | significantly inhibit expression | no influence | no influence | significantly enhance the expression of p21 | apparently reduce radiation-induced peripheral leukocyte damage | strongest protective effect | significantly better than that of amifostine |  |  |  |  |  |  |  |  |  |  |
| COC1=C(OC)C(=O)C(CCCCCCCCCCOC(=O)Cc2c(C)n(C(=O)c3ccc(Cl)cc3)c3cc(OC)ccc23)=C(C)C1=O [compound a] |  |  |  |  |  |  | apparently reduce radiation-induced peripheral leukocyte damage |  | significantly better than that of amifostine | 11 | ~80 | completely hydrolyzed | significantly enhance the sensitivity of tumor cells to chemotherapy | No death occurs | effective in inhibiting the killing effect of Doxorubicin on normal leukocytes, cardiomyocytes and peripheral normal tissues around the tumor | evidently higher | ≥ 60 | dose-dependent inhibitory effect against tumor | not significantly reduced |
